Measurements reported in publication PMC9455918, “Quinolizidines as Novel SARS-CoV-2 Entry Inhibitors” (International Journal of Molecular Sciences, 2022).
Several values for one entry are separate records, joined by “and”; a condition that tells them apart may be missing. Equal values may be shown once. Read-outs that look alike come from different tables or passages of the source.

Tests used:
[1] = tested on: D614G spike-pseudotyped virus; format: cell-based, SARS-CoV-2
[2] = tested on: Omicron BA.1 spike-pseudotyped virus; assay: microbe, parasite or virus in culture; format: cell-based, SARS-CoV-2
[3] = 293T-ACE2 cells, 3 days, luciferase reporter, mean ± SD of three tests, Inactive = CC50/IC50 ratio < 5

Row | Structure (SMILES) | IC50 [1] | other results
1 | C1=C2CCCN(CCCCCNCc3ccccc3)C2C2CC1C1CCCCN1C2 (centres unmarked) [Compound 4] | 0.86 ± 1.5 µM | IC50, D614G spike-pseudotyped virus [1, 3]: sub-µM potency
2 | O=C(NCCCCCCN1CCCC2CC3CC(CN4CCCCC34)C21)c1c(F)cc(Br)cc1F (centres unmarked) [Compound 1] | 4.7 ± 0.76 µM | 
3 | O=C(NCCCCCCCC(=O)N1CCCC2=CC3CC(CN4CCCCC34)C21)c1ccc(OC(F)(F)F)cc1 (centres unmarked) [Compound 8] | 17.5 ± 2.3 µM | IC50, D614G spike-pseudotyped virus [1, 3]: weak inhibitor
4 | O=C(NCCN1CCCC2=CC3CC(CN4CCCCC34)C21)c1ccccc1F (centres unmarked) [Compound 2] |  | IC50, D614G spike-pseudotyped virus [1]: Inactive ^8
5 | CCOC(=O)[C@H]1O[C@@H]1C(=O)N[C@@H](CC(C)C)C(=O)NCCC(C)C [Compound E64D, E64D, reference compound] |  | IC50 ([2]; read-out: IC50, Omicron BA.1 spike-pseudotyped virus): 0.36 ± 0.076 µM; IC50 [1, 3]: 0.48 ± 0.11 µM
6 | O=C(Cc1ccc(S(=O)(=O)C(F)(F)F)cc1)NCCCCN1CCCC2=CC3CC(CN4CCCCC34)C21 (centres unmarked) [Compound 3] | 3.8 ± 0.68 µM | 
7 | Fc1ccc(CNCCCCN2CCCC3=CC4CC(CN5CCCCC45)C32)cc1 (centres unmarked) [Compound 9] | 0.61 ± 0.18 µM | 
8 | CCN(CC)CCCC(C)Nc1ccnc2cc(Cl)ccc12 (centres unmarked) [Chloroquine diphosphate, reference compound] | 2.3 ± 3.6 µM | 
9 | COc1ccc(C(=O)NCCCCN2CCCC3=CC4CC(CN5CCCCC45)C32)cc1 (centres unmarked) [Compound 6] | 11.9 ± 2.1 µM | 
10 | CC(C)(C)c1ccc(C(=O)NCCCCCCN2CCCC3=CC4CC(CN5CCCCC45)C32)cc1 (centres unmarked) [Compound 7] | 3.7 ± 0.87 µM | 
11 | C1=C2CCCN[C@H]2[C@@H]2C[C@H]1[C@H]1CCCCN1C2 [Aloperine, aloperine, reference compound] | 11.5 ± 2.3 µM | 
12 | C1=C2CCCN(CCCCNCc3ccccc3)C2C2CC1C1CCCCN1C2 (centres unmarked) [Compound 5] | 0.5 µM and 0.53 µM | Fold less sensitive, Omicron variants [2]: approximately 1.5 fold; IC50 ([2]; Severe acute respiratory syndrome coronavirus 2, 293T/ACE2, read-out: IC50, Omicron BA.1 spike-pseudotyped virus): 0.76 ± 0.22 µM; Fold more potent than aloperine against D614G spike-pseudotyped virus [1]: approximately 22 fold; Fold more potent than chloroquine against D614G spike-pseudotyped virus [1]: ~5 fold; IC50, D614G spike-pseudotyped virus [1, 3]: sub-µM potency
